This is an account of results in patent US9487516B2, “Antibacterial oxadiazolone derivatives” (priority 2013, dated 2016).

Experiment in all cases: Bacterial growth minimal inhibitory concentration (microdilution, cation-adjusted Mueller-Hinton Broth)
Common to all, as to assay type: cell-based
(In broth dilution the organism is exposed to a series of concentrations in liquid medium.)

Experiment [1] relates to Acinetobacter baumanii T6474. The following applies: Acinetobacter baumannii, multiply-resistant strain (in particular quinolone-resistant). Here is the method: (§1) Minimal Inhibitory Concentrations (MICs; mg/L) were determined in cation-adjusted MuellerHinton Broth by a microdilution method following the description given in “Methods for Dilution Antimicrobial Susceptibility Tests for Bacteria that Grow Aerobically”, Approved standard, 7th ed., Clinical and Laboratory Standards Institute (CLSI) Document M7-A7, Wayne, Pa., USA, 2006.
(§2) All Example compounds were tested against several Gram positive and Gram negative bacteria. […] Staphylococcus aureus A798, Enterococcus faecium A949 and Acinetobacter baumanii T6474 are multiply-resistant strains (in particular quinolone-resistant), while Moraxella catarrhalis A894 is a quinolone-sensitive strain and Staphylococcus aureus ATCC29213 is a methicillin-sensitive and quinolone-sensitive strain.

For experiment [2], the system named is Enterococcus faecium A949. The following applies: multiply-resistant strain (in particular quinolone-resistant), read-out: MIC for E. faecium A949. Here is the method: as §1, §2
Experiment [3] concerns Moraxella catarrhalis A894. The following applies: quinolone-sensitive strain. Here is the method: as §1, §2
The subject of experiment [4] is Staphylococcus aureus A798. The following applies: multiply-resistant strain (in particular quinolone-resistant), read-out: MIC for S. aureus A798. Here is the method: as §1, §2
The test system of experiment [5] is Staphylococcus aureus ATCC29213. Particulars: methicillin-sensitive and quinolone-sensitive strain, read-out: MIC for S. aureus ATCC29213. Here is the method:
as §1, §2

Converted amounts (≈) assume the structure as drawn.

For `O=C1CSc2ccc(-n3nc(CCCN[C@@H]4Cn5c(=O)cnc6ccc(F)c4c65)oc3=O)nc2N1` [Example 18, (S)-7-fluoro-6-{3-[5-oxo-4-(3-oxo-3,4-dihydro-2H-pyrido[3,2-b][1,4]-thiazin-6-yl)-4,5-dihydro-[1,3,4]oxadiazol-2-yl]-propylamino}-5,6-dihydro-pyrrolo[1,2,3-de]quinoxalin-3-one], the MIC was 0.25 µg/mL (≈ 0.505 µM) in experiment [1]; 0.25 µg/mL (≈ 0.505 µM) in experiment [2]; not above 0.016 µg/mL in experiment [3]; 0.063 µg/mL (≈ 0.127 µM) in experiment [4]; 0.031 µg/mL (≈ 0.0626 µM) in experiment [5].

With `O=C1CSc2ccc(-n3nc(CCCN[C@H]4Cn5c(=O)ccc6ccc(F)c4c65)oc3=O)cc2N1` [Example 19, (R)-9-fluoro-1-{3-[5-oxo-4-(3-oxo-3,4-dihydro-2H-benzo[1,4]-thiazin-6-yl)-4,5-dihydro-[1,3,4]oxadiazol-2-yl]-propylamino}-1,2-dihydro-pyrrolo[3,2,1-ij]quinolin-4-one], the minimal inhibitory concentration (MIC) was not above 0.016 µg/mL in experiment [1]; 0.25 µg/mL (≈ 0.507 µM) in experiment [2]; 0.031 µg/mL (≈ 0.0628 µM) in experiment [3]; not above 0.016 µg/mL in experiment [4]; not above 0.016 µg/mL in experiment [5].

As to `O=C1CSc2ccc(-n3nc(CCCN[C@@H]4Cn5c(=O)cnc6ccc(F)c4c65)oc3=O)cc2N1` [Example 20, (S)-7-fluoro-6-{3-[5-oxo-4-(3-oxo-3,4-dihydro-2H-benzo[1,4]-thiazin-6-yl)-4,5-dihydro-[1,3,4]oxadiazol-2-yl]-propylamino}-5,6-dihydro-pyrrolo[1,2,3-de]quinoxalin-3-one], the MIC is not above 0.016 µg/mL in experiment [1]; 0.25 µg/mL (≈ 0.506 µM) in experiment [2]; 0.063 µg/mL (≈ 0.127 µM) in experiment [3]; not above 0.016 µg/mL in experiment [4]; not above 0.016 µg/mL in experiment [5].

Take `O=C1CSc2ccc(-n3nc(CCCN[C@H]4Cn5c(=O)cnc6ccc(F)c4c65)oc3=O)cc2N1` [Example 21, (R)-7-fluoro-6-{3-[5-oxo-4-(3-oxo-3,4-dihydro-2H-benzo[1,4]-thiazin-6-yl)-4,5-dihydro-[1,3,4]oxadiazol-2-yl]-propylamino}-5,6-dihydro-pyrrolo[1,2,3-de]quinoxalin-3-one]: the MIC is not above 0.016 µg/mL in experiment [1]; 0.25 µg/mL (≈ 0.506 µM) in experiment [2]; 0.063 µg/mL (≈ 0.127 µM) in experiment [3]; not above 0.016 µg/mL in experiment [4]; not above 0.016 µg/mL in experiment [5].

As for `O=c1oc(CCCN[C@@H]2Cn3c(=O)ccc4ccc(F)c2c43)nn1-c1ccc2c(c1)OCCO2` [Example 22, (S)-1-{3-[4-(2,3-dihydro-benzo[1,4]dioxin-6-yl)-5-oxo-4,5-dihydro-[1,3,4]oxadiazol-2-yl]-propylamino}-9-fluoro-1,2-dihydro-pyrrolo[3,2,1-ij]quinolin-4-one], the MIC in experiment [1] was 8 µg/mL (≈ 17.2 µM); in experiment [2], more than 8 µg/mL; in experiment [3], 4 µg/mL (≈ 8.61 µM); in experiment [4], more than 8 µg/mL; in experiment [5] it was 4 µg/mL (≈ 8.61 µM).

With `O=c1oc(CCCN[C@H]2Cn3c(=O)ccc4ccc(F)c2c43)nn1-c1ccc2c(c1)OCCO2` [Example 23, (R)-1-{3-[4-(2,3-dihydro-benzo[1,4]dioxin-6-yl)-5-oxo-4,5-dihydro-[1,3,4]oxadiazol-2-yl]-propylamino}-9-fluoro-1,2-dihydro-pyrrolo[3,2,1-ij]quinolin-4-one], the minimal inhibitory concentration (MIC) is more than 8 µg/mL in experiment [1]; more than 8 µg/mL in experiment [2]; 4 µg/mL (≈ 8.61 µM) in experiment [3]; 8 µg/mL (≈ 17.2 µM) in experiment [4]; 4 µg/mL (≈ 8.61 µM) in experiment [5].

Regarding `O=c1oc(CCCN[C@@H]2Cn3c(=O)cnc4ccc(F)c2c43)nn1-c1ccc2c(c1)OCCO2` [Example 24, (S)-6-{3-[4-(2,3-dihydro-benzo[1,4]dioxin-6-yl)-5-oxo-4,5-dihydro-[1,3,4]oxadiazol-2-yl]-propylamino}-7-fluoro-5,6-dihydro-pyrrolo[1,2,3-de]quinoxalin-3-one], the MIC was 4 µg/mL (≈ 8.59 µM) in experiment [1]; more than 8 µg/mL in experiment [2]; 4 µg/mL (≈ 8.59 µM) in experiment [3]; 8 µg/mL (≈ 17.2 µM) in experiment [4]; 2 µg/mL (≈ 4.3 µM) in experiment [5].

For the molecule `O=c1oc(CCCN[C@H]2Cn3c(=O)cnc4ccc(F)c2c43)nn1-c1ccc2c(c1)OCCO2` [Example 25, (R)-6-{3-[4-(2,3-dihydro-benzo[1,4]dioxin-6-yl)-5-oxo-4,5-dihydro-[1,3,4]oxadiazol-2-yl]-propylamino}-7-fluoro-5,6-dihydro-pyrrolo[1,2,3-de]quinoxalin-3-one], the MIC stood at 8 µg/mL (≈ 17.2 µM) in experiment [1]; 8 µg/mL (≈ 17.2 µM) in experiment [2]; 8 µg/mL (≈ 17.2 µM) in experiment [3]; 4 µg/mL (≈ 8.59 µM) in experiment [4]; 2 µg/mL (≈ 4.3 µM) in experiment [5].

Consider `CCCc1ccc(-n2nc(CCCN[C@H]3Cn4c(=O)ccc5ccc(F)c3c54)oc2=O)cc1` [Example 26, (R)-9-fluoro-1-{3-[5-oxo-4-(4-propyl-phenyl)-4,5-dihydro-[1,3,4]oxadiazol-2-yl]-propylamino}-1,2-dihydro-pyrrolo[3,2,1-ij]quinolin-4-one], for which the MIC in experiment [1] stood at 2 µg/mL (≈ 4.46 µM); in experiment [2] it was 0.5 µg/mL (≈ 1.11 µM); in experiment [3], 0.5 µg/mL (≈ 1.11 µM); in experiment [4], 0.5 µg/mL (≈ 1.11 µM); in experiment [5] it was 0.125 µg/mL (≈ 0.279 µM).

Take `CCCc1ccc(-n2nc(CCCN[C@@H]3Cn4c(=O)cnc5ccc(F)c3c54)oc2=O)cc1` [Example 27, (S)-7-fluoro-6-{3-[5-oxo-4-(4-propyl-phenyl)-4,5-dihydro-[1,3,4]oxadiazol-2-yl]-propylamino}-5,6-dihydro-pyrrolo[1,2,3-de]quinoxalin-3-one]: the minimal inhibitory concentration (MIC) in experiment [1] is 4 µg/mL (≈ 8.9 µM); in experiment [2], 2 µg/mL (≈ 4.45 µM); in experiment [3] it was 4 µg/mL (≈ 8.9 µM); in experiment [4], 2 µg/mL (≈ 4.45 µM); in experiment [5], 0.5 µg/mL (≈ 1.11 µM).

For the molecule `CCOc1ccc(-n2nc(CCCN[C@@H]3Cn4c(=O)ccc5ccc(F)c3c54)oc2=O)cc1` [Example 28, (S)-1-{3-[4-(4-ethoxy-phenyl)-5-oxo-4,5-dihydro-[1,3,4]oxadiazol-2-yl]-propylamino}-9-fluoro-1,2-dihydro-pyrrolo[3,2,1-ij]quinolin-4-one], the minimum inhibitory concentration (MIC) in experiment [1] is 4 µg/mL (≈ 8.88 µM); in experiment [2] it was more than 8 µg/mL; in experiment [3], 8 µg/mL (≈ 17.8 µM); in experiment [4], 4 µg/mL (≈ 8.88 µM); in experiment [5], 2 µg/mL (≈ 4.44 µM).

For `CCOc1ccc(-n2nc(CCCN[C@H]3Cn4c(=O)ccc5ccc(F)c3c54)oc2=O)cc1` [Example 29, (R)-1-{3-[4-(4-ethoxy-phenyl)-5-oxo-4,5-dihydro-[1,3,4]oxadiazol-2-yl]-propylamino}-9-fluoro-1,2-dihydro-pyrrolo[3,2,1-ij]quinolin-4-one], the minimal inhibitory concentration (MIC) in experiment [1] was 4 µg/mL (≈ 8.88 µM); in experiment [2] it was more than 8 µg/mL; in experiment [3], 8 µg/mL (≈ 17.8 µM); in experiment [4], 4 µg/mL (≈ 8.88 µM); in experiment [5] it was 2 µg/mL (≈ 4.44 µM).

For the molecule `CCOc1ccc(-n2nc(CCCN[C@@H]3Cn4c(=O)cnc5ccc(F)c3c54)oc2=O)cc1` [Example 30, (S)-6-{3-[4-(4-ethoxy-phenyl)-5-oxo-4,5-dihydro-[1,3,4]oxadiazol-2-yl]-propylamino}-7-fluoro-5,6-dihydro-pyrrolo[1,2,3-de]quinoxalin-3-one], the MIC in experiment [1] was 4 µg/mL (≈ 8.86 µM); in experiment [2], 8 µg/mL (≈ 17.7 µM); in experiment [3] it was 8 µg/mL (≈ 17.7 µM); in experiment [4], 4 µg/mL (≈ 8.86 µM); in experiment [5] it was 1 µg/mL (≈ 2.22 µM).

Regarding `CCOc1ccc(-n2nc(CCCN[C@H]3Cn4c(=O)cnc5ccc(F)c3c54)oc2=O)cc1` [Example 31, (R)-6-{3-[4-(4-ethoxy-phenyl)-5-oxo-4,5-dihydro-[1,3,4]oxadiazol-2-yl]-propylamino}-7-fluoro-5,6-dihydro-pyrrolo[1,2,3-de]quinoxalin-3-one], the minimal inhibitory concentration (MIC) in experiment [1] was 8 µg/mL (≈ 17.7 µM); in experiment [2], more than 8 µg/mL; in experiment [3], 8 µg/mL (≈ 17.7 µM); in experiment [4] it was 4 µg/mL (≈ 8.86 µM); in experiment [5] it was 1 µg/mL (≈ 2.22 µM).

For the molecule `CCSc1ccc(-n2nc(CCCN[C@H]3Cn4c(=O)ccc5ccc(F)c3c54)oc2=O)cc1` [Example 32, (R)-1-{3-[4-(4-ethylsulfanyl-phenyl)-5-oxo-4,5-dihydro-[1,3,4]oxadiazol-2-yl]-propylamino}-9-fluoro-1,2-dihydro-pyrrolo[3,2,1-ij]quinolin-4-one], the MIC in experiment [1] stood at 0.5 µg/mL (≈ 1.07 µM); in experiment [2], 0.5 µg/mL (≈ 1.07 µM); in experiment [3], 0.5 µg/mL (≈ 1.07 µM); in experiment [4], 0.25 µg/mL (≈ 0.536 µM); in experiment [5] it was 0.063 µg/mL (≈ 0.135 µM).

Turning to `CCSc1ccc(-n2nc(CCCN[C@@H]3Cn4c(=O)cnc5ccc(F)c3c54)oc2=O)cc1` [Example 33, (S)-6-{3-[4-(4-ethylsulfanyl-phenyl)-5-oxo-4,5-dihydro-[1,3,4]oxadiazol-2-yl]-propylamino}-7-fluoro-5,6-dihydro-pyrrolo[1,2,3-de]quinoxalin-3-one], the MIC in experiment [1] was determined as 0.25 µg/mL (≈ 0.535 µM); in experiment [2], 0.5 µg/mL (≈ 1.07 µM); in experiment [3] it was 0.5 µg/mL (≈ 1.07 µM); in experiment [4] it was 0.25 µg/mL (≈ 0.535 µM); in experiment [5] it was 0.031 µg/mL (≈ 0.0663 µM).

In the case of `O=C1COc2ccc(-n3nc(CCCN[C@@H]4Cn5c(=O)ccc6cccc4c65)oc3=O)nc2N1` [Example 34, (S)-1-{3-[5-oxo-4-(3-oxo-3,4-dihydro-2H-pyrido[3,2-b][1,4]oxazin-6-yl)-4,5-dihydro-[1,3,4]oxadiazol-2-yl]-propylamino}-1,2-dihydro-pyrrolo[3,2,1-ij]quinolin-4-one], the MIC in experiment [1] is 4 µg/mL (≈ 8.69 µM); in experiment [2], 8 µg/mL (≈ 17.4 µM); in experiment [3], 1 µg/mL (≈ 2.17 µM); in experiment [4], 4 µg/mL (≈ 8.69 µM); in experiment [5], 2 µg/mL (≈ 4.34 µM).

In general, MIC refers to the lowest concentration found to suppress growth.
